Values of other authors as cited in US20030162756A1, “Use of 2-hydroxy or 2-acetyloxy-4-trifluoromethylbenzoic acid derivatives as an agent for the treatment and prevention of mild cognitive impairment” (J. Uriach & CIA. S.A., priority 2001, published 2003).

Tested on: platelet aggregation
Conditions: described in U.S. Pat. No. 4,096,252; cited from earlier work

**Q.** With `O=C(O)c1ccc(C(F)(F)F)cc1O` [HTB, 2-hydroxy-4-trifluoromethylbenzoic acid] as the compound, how does the “activity as platelet anti-aggregant” value read?
**A.** remarkable activity as platelet anti-aggregant
